The values below are quoted from earlier work in patent US8765743B2, “Compounds” (Glaxosmithkline Intellectual Property Development Limited, priority 2008, dated 2014).

One data set has as its target CK2 protein kinase (Homo sapiens, UniProt P68400).

Read-outs that look alike come from different tables or passages of the source.

Sequence of CK2 protein kinase (P68400 whole entry): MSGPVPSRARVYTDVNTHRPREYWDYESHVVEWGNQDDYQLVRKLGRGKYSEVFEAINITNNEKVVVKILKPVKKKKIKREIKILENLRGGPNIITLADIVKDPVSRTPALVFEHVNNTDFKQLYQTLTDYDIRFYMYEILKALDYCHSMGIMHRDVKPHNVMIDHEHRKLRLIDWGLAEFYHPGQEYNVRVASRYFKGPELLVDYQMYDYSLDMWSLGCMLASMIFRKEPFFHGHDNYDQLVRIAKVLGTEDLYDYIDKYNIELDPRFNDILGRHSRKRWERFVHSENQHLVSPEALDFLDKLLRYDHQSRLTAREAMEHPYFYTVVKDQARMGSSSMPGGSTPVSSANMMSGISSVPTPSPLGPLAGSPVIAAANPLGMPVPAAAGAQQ

What is called IC50 is the midpoint of a concentration-inhibition curve. As to `O=c1cc(N2CCOCC2)oc2c(-c3ccccc3)cccc12` [LY294002], the IC50 on CK2 protein kinase was 5 to 10 µM; in the data set with Class I PI3-kinases (Fruman et al. 1998, read-out: IC50 values against each of these PI3-kinases), 15 to 20 µM.

On to wortmannin, for which the IC50 in the data set with Class I PI3-kinases (read-out: IC50 values against each of the various Class I PI3-kinases) is 0.001 to 0.01 µM.
